# From patent publication US6642392B1 (priority 1997, dated 2003)
# Read-outs that look alike come from different tables or passages of the source.
# Key:
# Format in all cases: in vivo
# [1] = system: Eiysiphe graminis f. sp. tritici; assay: Test A: wheat powdery mildew, preventive spray on wheat seedlings; conditions: for Test A disease control rating (100 = 100% disease control, 0 = no disease control): wheat seedlings sprayed to run-off, inoculated the following day, rating relative to controls, unmarked compounds (standard test rate); for Test A disease control rating: wheat powdery mildew
# Summary of the method: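 Compounds (3% acetone, 250 ppm Trem 014) sprayed to run-off on wheat seedlings, inoculated next day with spore dust. Incubated 7 days at 20° C before disease rating, 0–100% control relative to untreated controls.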
# Botrytis cinerea = assay: Test E: gray mold, preventive spray on cucumber seedlings; conditions: for Test E disease control rating (100 = 100% disease control, 0 = no disease control): cucumber seedlings sprayed to run-off, inoculated the following day, rating relative to controls, unmarked compounds (standard test rate); for Test E disease control rating: gray mold on cucumber
# Summary of the method: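 Compounds in 3% acetone were suspended with 250 ppm Trem 014 surfactant and sprayed to run-off on cucumber seedlings. B. cinerea spores were inoculated next day, then 48 h saturated humidity at 20° C and 5 days at 20° C. Disease control rated 0–100% versus controls.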
# Phytophthora infestans = conditions: for Test D disease control rating (100 = 100% disease control, 0 = no disease control): tomato seedlings sprayed to run-off, inoculated the following day, rating relative to controls, unmarked compounds (standard test rate); for Test D disease control rating: tomato late blight
# Puccinia recondita = assay: Test B: wheat leaf rust, preventive spray on wheat seedlings; conditions: for Test B disease control rating (100 = 100% disease control, 0 = no disease control): wheat seedlings sprayed to run-off, inoculated the following day, rating relative to controls, unmarked compounds (standard test rate); for Test B disease control rating: wheat leaf rust
# Summary of the method: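 Wheat seedlings were sprayed to run-off with compound (3% acetone, 250 ppm Trem 014), then inoculated with P. recondita spores the next day. They were held 24 h saturated at 20 °C, then 6 days at 20 °C. Ratings are 0–100% disease control versus controls.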
# Pyricularia oryzae = conditions: for Test C disease control rating (100 = 100% disease control, 0 = no disease control): rice seedlings sprayed to run-off, inoculated the following day, rating relative to controls, unmarked compounds (standard test rate); for Test C disease control rating: rice blast
# [2] = 100 = 100% disease control, 0 = no control relative to controls, unmarked entries (standard test concentration)
# [3] = 100 = 100% disease control, 0 = no control, unmarked entries (standard test concentration)
SMILES,"Test A disease control rating [1, 2] [%]",Test E disease control rating (Botrytis cinerea; [3]) [%],Test D disease control rating (Phytophthora infestans; [3]) [%],Test B disease control rating (Puccinia recondita; [3]) [%],Test C disease control rating (Pyricularia oryzae; [3]) [%],also measured
CCC1(C(=O)NCC(C)=Cc2ccccc2)C(C)C1(Cl)Cl (stereo not drawn) [compound 265],,,,,,"Test A disease control rating (100 = 100% disease control, 0 = no disease control) [1]: 77%; Test E disease control rating (100 = 100% disease control, 0 = no disease control) (Botrytis cinerea): 0%; Test D disease control rating (100 = 100% disease control, 0 = no disease control) (Phytophthora infestans): 96%; Test B disease control rating (100 = 100% disease control, 0 = no disease control) (Puccinia recondita): 0%; Test C disease control rating (100 = 100% disease control, 0 = no disease control) (Pyricularia oryzae): 91%"
"C[C@H](COc1cccc(Br)c1)NC(=O)C(C#N)C(C)(C)C (single isomer, unassigned) [9c]",62,0,51,28,100,
CC(COc1cccc(Cl)c1)NC(=O)C(C#N)C(C)(C)C (mixture of isomers) [6b],38,0,4,68,53,
"C[C@H](COc1cccc(I)c1)NC(=O)C(C#N)C(C)(C)C (single isomer, unassigned) [12a]",86,0,0,68,91,
"C[C@H](COc1ccc(F)cc1Br)NC(=O)C(C#N)C(C)(C)C (single isomer, unassigned) [165a]",86,86,23,0,74,
"CC(C=Cc1cc(F)ccc1F)NC(=O)C(C#N)C(C)(C)C (single isomer, unassigned) [229b]",,,,,,"Test A disease control rating (100 = 100% disease control, 0 = no disease control) [1]: 0%; Test E disease control rating (100 = 100% disease control, 0 = no disease control) (Botrytis cinerea): 95%; Test D disease control rating (100 = 100% disease control, 0 = no disease control) (Phytophthora infestans): 25%; Test B disease control rating (100 = 100% disease control, 0 = no disease control) (Puccinia recondita): 0%; Test C disease control rating (100 = 100% disease control, 0 = no disease control) (Pyricularia oryzae): 100%"
"CC(COc1ccc(F)cc1)NC(=O)C(C#N)C(C)(C)C (single isomer, unassigned) [4b]",86,82,89,0,99,
"C[C@H](COc1ccccc1)NC(=O)C(C#N)C(C)(C)C (single isomer, unassigned) [1e]",92,47,80,0,100,
CCC1(C(=O)NC(C)COc2cc(Cl)cc(Cl)c2)C(C)C1(Cl)Cl (stereo not drawn) [compound 115],,,,,,Test A disease control rating ([1]; tested at 40 ppm): 52%; Test E disease control rating (Botrytis cinerea; tested at 40 ppm): 0%; Test D disease control rating (Phytophthora infestans; tested at 40 ppm): 0%; Test B disease control rating (Puccinia recondita; tested at 40 ppm): 0%; Test C disease control rating (Pyricularia oryzae; tested at 40 ppm): 32%
CCC1(C(=O)NC(C)COc2ccccc2OC(F)(F)C(F)F)C(C)C1(Cl)Cl (mixture of isomers) [compound 90],84,0,0,0,32,
CCC1(C(=O)NC(C)COc2ccccc2CF)C(C)C1(Cl)Cl (mixture of isomers) [compound 92],,,,,,Test A disease control rating ([1]; tested at 40 ppm): 60%; Test E disease control rating (Botrytis cinerea; tested at 40 ppm): 0%; Test D disease control rating (Phytophthora infestans; tested at 40 ppm): 0%; Test B disease control rating (Puccinia recondita; tested at 40 ppm): 0%; Test C disease control rating (Pyricularia oryzae; tested at 40 ppm): 0%
"C[C@H](COc1cc(Cl)cc(Cl)c1)NC(=O)C(C#N)C(C)(C)C (single isomer, unassigned) [35b]",37,0,0,0,91,
CCC1(C(=O)NCCCn2cccc2Cl)C(C)C1(Cl)Cl (stereo not drawn) [compound 146],0,0,0,22,0,
"C[C@H](COc1ccc(Cl)cc1Cl)NC(=O)C(C#N)C(C)(C)C (single isomer, unassigned) [32b]",0,0,23,27,94,
CCC1(C(=O)NC(C)COc2cccc(Cl)c2)C(C)C1(Cl)Cl (mixture of isomers) [82a],,,,,,Test A disease control rating ([1]; tested at 40 ppm): 0%; Test E disease control rating (Botrytis cinerea; tested at 40 ppm): 0%; Test D disease control rating (Phytophthora infestans; tested at 40 ppm): 43%; Test B disease control rating (Puccinia recondita; tested at 40 ppm): 0%; Test C disease control rating (Pyricularia oryzae; tested at 40 ppm): 53%
CCC1(C(=O)NC(C)COc2cc(F)cc(F)c2)C(C)C1(Cl)Cl (stereo not drawn) [compound 234],,,,,,"Test A disease control rating (100 = 100% disease control, 0 = no disease control) [1]: 0%; Test E disease control rating (100 = 100% disease control, 0 = no disease control) (Botrytis cinerea): 0%; Test D disease control rating (100 = 100% disease control, 0 = no disease control) (Phytophthora infestans): 0%; Test B disease control rating (100 = 100% disease control, 0 = no disease control) (Puccinia recondita): 0%; Test C disease control rating (100 = 100% disease control, 0 = no disease control) (Pyricularia oryzae): 100%"
CC(COc1cc(F)cc(F)c1C#N)NC(=O)C(C#N)C(C)C(C)(C)C (mixture of isomers) [compound 69],0,0,2,0,53,
CC(COc1ccc(F)cc1)NC(=O)C(C#N)C(C)(C)C (mixture of isomers) [4c],35,58,0,0,94,
"C[C@H](COc1ccc(F)c(Cl)c1)NC(=O)C(C#N)C(C)(C)C (single isomer, unassigned) [183a]",0,0,35,28,86,
CC(COc1ccccc1C(C)C)NC(=O)C(C#N)C(C)(C)C (mixture of isomers) [compound 22],0,0,0,0,100,
"C[C@H](COc1cc(F)ccc1F)NC(=O)C(C#N)C(C)(C)C (single isomer, unassigned) [28b]",86,0,96,28,100,
"C[C@H](COc1ccc(F)cc1F)NC(=O)C(C#N)C(C)(C)C (single isomer, unassigned) [27b]",91,0,0,0,100,
CCc1cccc(OCC(C)NC(=O)C2(CC)C(C)C2(Cl)Cl)c1 (stereo not drawn) [compound 240],,,,,,"Test A disease control rating (100 = 100% disease control, 0 = no disease control) [1]: 63%; Test E disease control rating (100 = 100% disease control, 0 = no disease control) (Botrytis cinerea): 0%; Test D disease control rating (100 = 100% disease control, 0 = no disease control) (Phytophthora infestans): 96%; Test B disease control rating (100 = 100% disease control, 0 = no disease control) (Puccinia recondita): 0%; Test C disease control rating (100 = 100% disease control, 0 = no disease control) (Pyricularia oryzae): 94%"
CCC1(C(=O)NC(C)COc2c(C)cccc2C#N)C(C)C1(Cl)Cl (mixture of isomers) [compound 259],,,,,,"Test A disease control rating (100 = 100% disease control, 0 = no disease control) [1]: 84%; Test E disease control rating (100 = 100% disease control, 0 = no disease control) (Botrytis cinerea): 48%; Test D disease control rating (100 = 100% disease control, 0 = no disease control) (Phytophthora infestans): 0%; Test B disease control rating (100 = 100% disease control, 0 = no disease control) (Puccinia recondita): 0%; Test C disease control rating (100 = 100% disease control, 0 = no disease control) (Pyricularia oryzae): 91%"
"C[C@H](COc1ccccc1F)NC(=O)C(C#N)C(C)(C)C (single isomer, unassigned) [2c]",86,0,24,0,100,
"C[C@H](COc1cc(Cl)c(Cl)cc1Cl)NC(=O)C(C#N)C(C)(C)C (single isomer, unassigned) [174b]",0,0,91,28,52,
CC(COc1ccccc1C(F)(F)F)NC(=O)C1(C)CC1(Cl)Cl (mixture of isomers) [compound 312],,,,,,"Test A disease control rating (100 = 100% disease control, 0 = no disease control) [1]: 0%; Test E disease control rating (100 = 100% disease control, 0 = no disease control) (Botrytis cinerea): 0%; Test D disease control rating (100 = 100% disease control, 0 = no disease control) (Phytophthora infestans): 82%; Test B disease control rating (100 = 100% disease control, 0 = no disease control) (Puccinia recondita): 0%; Test C disease control rating (100 = 100% disease control, 0 = no disease control) (Pyricularia oryzae): 0%"
